US10294212B2 (CURADEV PHARMA PRIVATE LTD., priority 2013, dated 2019)
pIC50: −log10 of the molar value. Where a name gives a salt, the structure may show the parent alone.

How the values were obtained:
[1] = target: Human TDO (hTDO)-transfected CHO-K1 cells (Homo sapiens (Human), UniProt P48775); assay: CHO-K1 cell based TDO assay; settings: hTDO cellular assay
Method in brief: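 Stably hTDO-expressing CHO-K1 cells were exposed to compounds (typically 31 μM to 10 nM) in HBSS with 80 μM L-tryptophan for 2 h. TCA-treated supernatant was heated at 65° C for 15 min to convert N-formylkynurenine, then kynurenine was quantified by LC/MS/MS. IC50 came from percent inhibition versus DMSO control.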

[2] = target: Human indoleamine 2,3-dioxygenase1 (hIDO1) (Homo sapiens (Human), UniProt P14902); assay: In-vitro IDO1 enzyme assay (conversion of L-tryptophan to KYN); assay type: biochemical; settings: read-out: IC50 (IDO1) Enz
Method in brief: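 His-tagged hIDO1 (10 nM, E. coli-expressed) incubated with 30 μM L-tryptophan, 20 mM ascorbate, 10 μM methylene blue and 100 μg/mL catalase in 50 mM potassium phosphate pH 6.5, 30 min at 37 °C. TCA stop, then 65 °C hydrolysis; KYN measured by HPLC-UV at 360 nm or LC/MS/MS. IC50 by nonlinear regression versus 1% DMSO control.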

IDO1 in HeLa cells = IDO1 in HeLa cells (Homo sapiens (Human), UniProt P14902); assay: HeLa cell based IDO1 assay (IFNγ-induced, KYN in supernatant)
Method: HeLa cells were obtained from ATCC and maintained in DMEM supplemented with sodium bicarbonate (2.1 g/L), HEPES (4.1 g/L), L-glutamine (2 mM), non-essential amino acid (84 mg/L) and fetal bovine serum (10% FBS) and maintained at 95% humidity and 5% CO2 in a 37° C. incubator. Unless otherwise stated, all materials were procured from Sigma. Upon incubation with gamma-interferon (IFNγ ), HeLa cells express IDO1, which catalyzes the formation of N-formyl kynurenine from tryptophan present in growth medium. The assay was performed as follows:
Cells were plated in medium (300 μL) at a density of 0.1 million per well of a 48 well plate and hIDO1 was induced by overnight treatment with IFNγ (50 ng/mL) (Peprotech, USA). The following day, cells were washed to remove IFNγ and were incubated with specific concentrations of test compounds (typically 10 μM to 1 nM, final volume 300 μL) in Hanks Balanced Salt Solution (HBSS) containing 80 μM L-tryptophan. Following incubation, supernatant (150 μL) was transferred to a 96 well plate into which 30%TCA (304) was added and the contents further incubated at 65° C. for 15 min to fully convert N-formylkynurenine to kynurenine. The reaction mixture was then centrifuged to remove sediments and the KYN in the supernatant was estimated by UV-visible absorption spectroscopy at 360 nm using a Waters HPLC system fitted with a C-18 column. (Xiangdong Liu et al. Blood 2010, Vol-117, 3520-30; Sono described above).
Percent inhibition at each concentration of test compounds was determined by estimating the decrease in KYN with reference to the reaction control with 1% DMSO vehicle. Data were analyzed using nonlinear regression to generate IC50 values using Graph Pad Prism® 5.

Chain of Human TDO (hTDO)-transfected CHO-K1 cells (P48775 whole entry): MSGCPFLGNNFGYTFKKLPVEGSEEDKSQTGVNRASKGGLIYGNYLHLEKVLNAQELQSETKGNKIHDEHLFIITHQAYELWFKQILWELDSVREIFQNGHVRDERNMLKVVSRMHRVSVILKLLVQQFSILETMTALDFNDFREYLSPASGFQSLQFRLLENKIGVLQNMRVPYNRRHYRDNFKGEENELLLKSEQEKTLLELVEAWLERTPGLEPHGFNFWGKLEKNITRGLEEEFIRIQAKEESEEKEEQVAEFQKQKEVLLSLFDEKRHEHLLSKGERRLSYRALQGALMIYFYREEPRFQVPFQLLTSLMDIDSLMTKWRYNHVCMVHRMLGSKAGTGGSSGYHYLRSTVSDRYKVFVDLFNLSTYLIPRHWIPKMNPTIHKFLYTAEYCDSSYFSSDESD
Chain of Human indoleamine 2,3-dioxygenase1 (hIDO1) (P14902 whole entry): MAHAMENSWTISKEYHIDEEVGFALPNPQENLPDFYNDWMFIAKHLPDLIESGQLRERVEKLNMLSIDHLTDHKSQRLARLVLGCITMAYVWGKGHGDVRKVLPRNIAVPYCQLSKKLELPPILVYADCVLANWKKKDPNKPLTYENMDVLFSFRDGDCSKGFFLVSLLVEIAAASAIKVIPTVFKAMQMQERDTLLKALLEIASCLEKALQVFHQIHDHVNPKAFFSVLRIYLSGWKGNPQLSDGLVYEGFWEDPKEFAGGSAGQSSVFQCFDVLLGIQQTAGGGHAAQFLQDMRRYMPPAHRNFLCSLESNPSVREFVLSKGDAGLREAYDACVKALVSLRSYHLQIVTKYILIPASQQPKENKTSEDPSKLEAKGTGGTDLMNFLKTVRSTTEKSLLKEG
Chain of IDO1 in HeLa cells (P14902 whole entry): as above

`CCOC(=O)Nc1oc2c(-c3ccnc(C)c3)nccc2c1N(C(=O)OCC)c1ccc(F)c(F)c1` [Compound 279, Ethyl (3,4-difluorophenyl)(2-((ethoxycarbonyl)amino)-7-(2-methylpyridin-4-yl)furo[2,3-c]pyridin-3-yl)carbamate] was tested, and the pIC50 [1] was < 5.70, the pIC50 [2] was < 6.00 and the pIC50 (IDO1 in HeLa cells) was < 6.00.

With `COc1cc(-c2nccc3c(Nc4ccc(F)c(Cl)c4)c(N)oc23)ccn1` [Compound 229, N^3-(3-Chloro-4-fluorophenyl)-7-(2-methoxypyridin-4-yl)furo[2,3-c]pyridine-2,3-diamine] the pIC50 [1] was 5.70 to 6.30, the pIC50 [2] was > 6.70 and the pIC50 (IDO1 in HeLa cells) was > 6.70.

For `CCc1nccc2c(Nc3cccc(C(F)(F)F)c3)c(N)oc12` [Compound 76, 7-Ethyl-N^3-(3-(trifluoromethyl)phenyl)furo[2,3-c]pyridine-2,3-diamine], the pIC50 [1] was 5.70 to 6.30, the pIC50 [2] was > 6.70 and the pIC50 (IDO1 in HeLa cells) was > 6.70.

For `Cc1cc(-c2nccc3c(Nc4ccccc4Cl)c(N)oc23)ccn1` [Compound 206, N^3-(2-chlorophenyl)-7-(2-methylpyridin-4-yl)furo[2,3-c]pyridine-2,3-diamine], the pIC50 [1] was 5.70 to 6.30, the pIC50 [2] was > 6.70 and the pIC50 (IDO1 in HeLa cells) was > 6.70.

In the case of `Cc1cc(-c2nccc3c(Nc4cccc(C(F)(F)F)c4)c(N)oc23)ccn1` [Compound 207, 7-(2-methylpyridin-4-yl)-N^3-(3-(trifluoromethyl)phenyl)furo[2,3-c]pyridine-2,3-diamine], the pIC50 [1] was 5.70 to 6.30, the pIC50 [2] was > 6.70 and the pIC50 (IDO1 in HeLa cells) was > 6.70.

With `Nc1oc2c(-c3ccnc(C(=O)NC4CCCCC4)c3)nccc2c1Nc1ccc(F)c(Cl)c1` [Compound 257, 4-(2-Amino-3-((3-chloro-4-fluorophenyl)amino)furo[2,3-c]pyridin-7-yl)-N-cyclohexylpicolinamide] the pIC50 [1] was < 5.70, the pIC50 [2] was > 6.70 and the pIC50 (IDO1 in HeLa cells) was > 6.70.

For `Nc1oc2cnccc2c1Nc1cccc(F)c1` [Compound 46, N^3-(3-Fluorophenyl)furo[2,3-c]pyridine-2,3-diamine], the pIC50 [1] was 5.70 to 6.30, the pIC50 [2] was 6.00 to 6.70 and the pIC50 (IDO1 in HeLa cells) was > 6.70.

In the case of `Nc1oc2c(-c3cccc(C(F)(F)F)c3)nccc2c1Nc1ccc(F)c(Cl)c1` [Compound 199, N^3-(3-Chloro-4-fluorophenyl)-7-(3-(trifluoromethyl)phenyl)furo[2,3-c]pyridine-2,3-diamine], the pIC50 [1] was < 5.70, the pIC50 [2] was > 6.70 and the pIC50 (IDO1 in HeLa cells) was > 6.70.

Work on `Nc1oc2cnccc2c1Nc1ccc(Cl)c(Cl)c1` [Compound 15, N^3-(3,4-Dichlorophenyl)furo[2,3-c]pyridine-2,3-diamine] yielded a pIC50 [1] of 5.70 to 6.30, a pIC50 [2] of 6.00 to 6.70 and a pIC50 (IDO1 in HeLa cells) of 6.00 to 6.70.

`Nc1oc2cnccc2c1Nc1cccc(C2CC2)c1` [Compound 42, N^3-(3-Cyclopropylphenyl)furo[2,3-c]pyridine-2,3-diamine] was tested, and the pIC50 [1] was < 5.70, the pIC50 [2] was > 6.70 and the pIC50 (IDO1 in HeLa cells) was > 6.70.

`Cc1cc(-c2cccc3c(Nc4ccc(F)c(Cl)c4)c(N)sc23)ccn1` [Compound 240, N^3-(3-Chloro-4-fluorophenyl)-7-(2-methylpyridin-4-yl)benzo[b]thiophene-2,3-diamine] was tested, and the pIC50 [1] was < 5.70, the pIC50 [2] was > 6.70 and the pIC50 (IDO1 in HeLa cells) was > 6.70.

For `C#Cc1cccc(Nc2c(N)oc3cnccc23)c1` [Compound 68, N^3-(3-Ethynylphenyl)furo[2,3-c]pyridine-2,3-diamine], the pIC50 [1] was 5.70 to 6.30, the pIC50 [2] was 6.00 to 6.70 and the pIC50 (IDO1 in HeLa cells) was > 6.70.

In the case of `Cc1cc(-c2nccc3c(Nc4ccc(F)c(Cl)c4)c(N)oc23)ccn1` [Compound 158, N^3-(3-chloro-4-fluorophenyl)-7-(2-methylpyridin-4-yl)furo[2,3-c]pyridine-2,3-diamine], the pIC50 [1] was 5.70 to 6.30, the pIC50 [2] was > 6.70 and the pIC50 (IDO1 in HeLa cells) was > 6.70.

For `N#Cc1nccc2c(Nc3ccc(F)c(F)c3)c(N)oc12` [Compound 185, 2-Amino-3-((3,4-difluorophenyl)amino)furo[2,3-c]pyridine-7-carbonitrile], the pIC50 [1] was > 6.30, the pIC50 [2] was 6.00 to 6.70 and the pIC50 (IDO1 in HeLa cells) was > 6.70.

In the case of `CC(C)c1cccc(Nc2c(N)oc3cnccc23)c1` [Compound 43, N^3-(3-Isopropylphenyl)furo[2,3-c]pyridine-2,3-diamine], the pIC50 [1] was < 5.70, the pIC50 [2] was 6.00 to 6.70 and the pIC50 (IDO1 in HeLa cells) was > 6.70.

With `CCc1nccc2c(Nc3ccc(F)c(Cl)c3)c(N)oc12` [Compound 73, N^3-(3-Chloro-4-fluoro-phenyl)-7-ethyl-furo[2,3-c]pyridine-2,3-diamine] the pIC50 [1] was > 6.30, the pIC50 [2] was > 6.70 and the pIC50 (IDO1 in HeLa cells) was > 6.70.

In the case of `Cc1cccc(Nc2c(N)oc3cc(C#N)ccc23)c1` [Compound 114, 2-Amino-3-(m-tolylamino)benzofuran-6-carbonitrile], the pIC50 [1] was < 5.70, the pIC50 [2] was 6.00 to 6.70 and the pIC50 (IDO1 in HeLa cells) was > 6.70.

In the case of `CNC(=O)c1cc(-c2nccc3c(Nc4cccc(Cl)c4)c(N)oc23)ccn1` [Compound 225, 4-(2-Amino-3-((3-chlorophenyl)amino)furo[2,3-c]pyridin-7-yl)-N-methylpicolinamide], the pIC50 [1] was 5.70 to 6.30, the pIC50 [2] was > 6.70 and the pIC50 (IDO1 in HeLa cells) was > 6.70.

For `Nc1oc2c(-c3ccnc(C(F)(F)F)c3)nccc2c1Nc1ccc(F)c(Cl)c1` [Compound 268, N^3-(3-Chloro-4-fluorophenyl)-7-(2-(trifluoromethyl)pyridin-4-yl)furo[2,3-c]pyridine-2,3-diamine], the pIC50 [1] was < 5.70, the pIC50 [2] was > 6.70 and the pIC50 (IDO1 in HeLa cells) was > 6.70.

In the case of `Cc1ccc(Nc2c(N)oc3cnccc23)cc1` [Compound 40, N^3-(p-tolyl)Furo[2,3-c]pyridine-2,3-diamine], the pIC50 [1] was 5.70 to 6.30, the pIC50 [2] was < 6.00 and the pIC50 (IDO1 in HeLa cells) was > 6.70.

`Nc1sc2ccc(Cl)cc2c1Nc1cccc(C(F)(F)F)c1` [Compound 133, 5-Chloro-N^3-(3-(trifluoromethyl)phenyl)benzo[b]thiophene-2,3-diamine hydrochloride] gave a pIC50 [1] of 5.70 to 6.30, a pIC50 [2] of 6.00 to 6.70 and a pIC50 (IDO1 in HeLa cells) of 6.00 to 6.70.

For `Nc1oc2cnc(F)cc2c1Nc1ccccc1Cl` [Compound 218, N^3-(2-Chlorophenyl)-5-fluorofuro[2,3-c]pyridine-2,3-diamine], the pIC50 [1] was 5.70 to 6.30, the pIC50 [2] was 6.00 to 6.70 and the pIC50 (IDO1 in HeLa cells) was > 6.70.

In the case of `Nc1oc2cnccc2c1Nc1cccc(Cl)c1` [Compound 8, N^3-(3-Chlorophenyl)furo[2,3-c]pyridine-2,3-diamine], the pIC50 [1] was 5.70 to 6.30, the pIC50 [2] was 6.00 to 6.70 and the pIC50 (IDO1 in HeLa cells) was > 6.70.

In the case of `Nc1sc2c(-c3ccncc3)cccc2c1Nc1ccc(F)c(Cl)c1` [Compound 213, N^3-(3-Chloro-4-fluorophenyl)-7-(pyridin-4-yl)benzo[b]thiophene-2,3-diamine], the pIC50 [1] was 5.70 to 6.30, the pIC50 [2] was > 6.70 and the pIC50 (IDO1 in HeLa cells) was > 6.70.

With `Nc1oc2c(F)nccc2c1Nc1ccc(F)c(C(F)(F)F)c1` [Compound 189, 7-Fluoro-N^3-(4-fluoro-3-(trifluoromethyl)phenyl)furo[2,3-c]pyridine-2,3-diamine] the pIC50 [1] was 5.70 to 6.30, the pIC50 [2] was > 6.70 and the pIC50 (IDO1 in HeLa cells) was > 6.70.

Compound `Nc1oc2c[n+]([O-])ccc2c1Nc1ccc(F)c(Cl)c1` [Compound 260, 2-Amino-3-((3-chloro-4-fluorophenyl)amino)furo[2,3-c]pyridine 6-oxide] has a pIC50 [1] of 5.70 to 6.30, a pIC50 [2] of 6.00 to 6.70 and a pIC50 (IDO1 in HeLa cells) of 6.00 to 6.70.

`C#Cc1cccc(Nc2c(N)oc3c(CC)nccc23)c1` [Compound 96, 7-Ethyl-N^3-(3-ethynylphenyl)furo[2,3-c]pyridine-2,3-diamine] was tested, and the pIC50 [1] was 5.70 to 6.30, the pIC50 [2] was > 6.70 and the pIC50 (IDO1 in HeLa cells) was > 6.70.

For `Cc1cc(C)cc(-c2nccc3c(Nc4ccc(F)c(Cl)c4)c(N)oc23)c1` [Compound 277, N^3-(3-Chloro-4-fluorophenyl)-7-(3,5-dimethylphenyl)furo[2,3-c]pyridine-2,3-diamine], the pIC50 [1] was 5.70 to 6.30, the pIC50 [2] was > 6.70 and the pIC50 (IDO1 in HeLa cells) was > 6.70.

For `Nc1oc2cnccc2c1Nc1cc(F)c(F)c(Br)c1` [Compound 22, N^3-(3-Bromo-4,5-difluorophenyl)furo[2,3-c]pyridine-2,3-diamine], the pIC50 [1] was < 5.70, the pIC50 [2] was < 6.00 and the pIC50 (IDO1 in HeLa cells) was 6.00 to 6.70.

With `Nc1oc2c(-c3cc(F)nc(F)c3)nccc2c1Nc1ccc(F)c(Cl)c1` [Compound 191, N^3-(3-Chloro-4-fluorophenyl)-7-(2,6-difluoropyridin-4-yl)furo[2,3-c]pyridine-2,3-diamine] the pIC50 [1] was 5.70 to 6.30, the pIC50 [2] was > 6.70 and the pIC50 (IDO1 in HeLa cells) was > 6.70.

For `Nc1oc2c(-c3cccc(Cl)c3)nccc2c1Nc1ccc(F)c(Cl)c1` [Compound 100, N^3-(3-Chloro-4-fluorophenyl)-7-(3-chlorophenyl)furo[2,3-c]pyridine-2,3-diamine], the pIC50 [1] was < 5.70, the pIC50 [2] was > 6.70 and the pIC50 (IDO1 in HeLa cells) was > 6.70.
